The subject of data set [1] is S. aureus. Kind of data set: S. aureus adhesion to HaCaT human keratinocyte cells (bacterial adhesion assay, CFU). The note with it: 200 nM peptide; FIG. 1B. The class given is cell-based, Staphylococcus aureus. As to the method: HaCaT human keratinocyte cells were cultured in DMEM supplemented with 10% (v/v) foetal bovine serum. Cells were subcultured by trypsinisation. For bacterial adhesion assays, HaCaT cells (10,000 cells/well) were grown overnight in 96-well plates.
For infection assays, bacterial were cultured from a single agar plate colony overnight in 5 ml of the appropriate growth medium. Then cultures were harvested by centrifugation, washed with 10 ml PBS, re-suspended in growth medium and incubated to achieve an OD600 equivalent to 5×10^8 CFU/ml. Cultures were again harvested by centrifugation, washed twice with PBS and re-suspended in DMEM at an appropriate density.

The subject of another data set is P. aeruginosa PA01. Kind of data set: Stability to bacterial cultures (P. aeruginosa PA01), residual activity in infection assay on HaCaT. It counts as in vitro ADME, Pseudomonas aeruginosa. Particulars: 4 hrs incubation with growing culture.
The subject of a further data set is trypsin. In words: Protease stability: trypsin digestion, LC-MS. It counts as in vitro ADME. The note with it: 100 ug/ml peptide, trypsin 2 mg/ml, 37° C., 1 hour.
The subject of a further data set is chymotrypsin. Kind of data set: Protease stability: chymotrypsin digestion, LC-MS. Particulars: 100 ug/ml peptide, chymotrypsin 2 mg/ml, 25° C., 1 hour. It counts as in vitro ADME.
In data set [2] the test system is S. aureus SH1000. Here is the method:
Protease stability was assessed using trypsin, chymotrypsin and human serum. Peptides at 100 μg/ml were incubated in 100 mM ammonium bicarbonate+2 mM calcium chloride were digested using trypsin (2 mg/ml), chymotrypsin (2 mg/ml) or human serum (25% (v/v)) for 1 or 18 hours. Digestion was performed at 37° C. for trypsin and human serum, and 25° C. for chymotrypsin. Reaction was stopped with 2.5% formic acid for trypsin and chymotrypsin. Human serum proteins were precipitated with acetonitrile. Supernatants were analysed on LC-MS. Stability to bacterial proteases was also analysed in cultures of S. aureus SH100 and P. aeruginosa PA01. 20 nM peptides in Keratinocyte-Serum Free Medium (KFSM) were incubated with mid-log phase cultures of bacteria for 4 hours. Bacteria were then removed by centrifugation and the supernatants used in bacterial adhesion assays, as described below.
Human cells in 96-well plates were washed with 200 ul HBSS and incubated with 200 μl 5% (w/v) BSA for 1 hour at 37° C., washed twice with 200 μl HBSS prior to incubation for 1 hour at 37° C. with peptides diluted in DMEM, or DMEM alone for control well. After removal of peptide solutions, wells were infected for 1 hour at 37° C. with 50 μl bacteria suspended in DMEM at optimised multiplicities of infection (MOI). […]

For data set [3], the system named is S. aureus. Particulars: reference [7]; cited from earlier work.
The subject of data set [4] is S. aureus SH1000. Particulars: cited from earlier work.
The nature of data set [5]: Protease stability: trypsin digestion, LC-MS. The class given is in vitro ADME. The note with it: 100 ug/ml peptide, trypsin 2 mg/ml, 37° C., 18 hours; read-out: peptide still undigested in trypsin at 18 hours.
The nature of data set [6]: Protease stability: chymotrypsin digestion, LC-MS. Particulars: 100 ug/ml peptide, chymotrypsin 2 mg/ml, 25° C., 18 hours; read-out: peptide still undigested in chymotrypsin at 18 hours. It counts as in vitro ADME.
Data set [7] relates to S. aureus SH1000. Kind of data set: Mouse in vivo skin infection model. On the set-up: species or system Staphylococcus aureus. The note with it: mice, 200 nM peptide mixed with S. aureus SH1000 in a bandage on depilated skin; FIG. 9. As to the method:
C57/Bl6 mice were shaved to produce a bare area of approximately 2×2 cm. Depilatory cream was applied to depilate this area. A bandage was applied that contained a saline solution containing 200 nM of mouse 800-CAP, its scrambled control or human 800ii, and S. aureus SH1000. After 5 days, the mice were sacrificed and the depilated skin processed to release bacteria. The infection was assessed as CFU, and normalised to untreated control mice (=100). The experiment was performed 3 times using groups of 3 mice for each condition. Data are shown as the means of each separate experiment. Significance of the difference from 100 was calculated using a one-sample t test.

Where a SMILES comes first, the peptide text is derived from it. Bridges are numbered along the chain shown (N, C = ends). Where no end group is shown, it is not given here. [ ]: non-standard residue; d: D form. S5 = C=CCCC[C@](C)(N)C(=O)O

Consider “SEQ ID NO: 18: shorter form of peptide 800-Cap (KAIHYALN; second short form of 800-Cap)”, for which the “inhibitory activity against S. aureus adhesion to human keratinocyte line HaCaT” value (shortened to “inhibitory activity”) with S. aureus [1] was “little or no inhibitory activity”.
As to DEPQRETLKAIHYALN [800-Cap], the “peptide activity degraded by incubation with P. aeruginosa PA01 culture” value in the data set with P. aeruginosa PA01 (residual activity on S. aureus SH1000 / HaCaT) is given as approximately 50%. In addition, the “digestion by trypsin after 1 hour” value in the data set with trypsin is listed as “completely digested”. Also, in the data set with chymotrypsin, the “digestion by chymotrypsin after 1 hour” value is on record as “completely digested”. Also, the “peptide activity degraded by incubation with S. aureus SH1000 culture” value in the data set with S. aureus SH1000 [2] was approximately 50%.
With “6: synthetic peptide with helix-preserving Ala residues replacing Ile35/Leu39 (DEPQRETLKAAHYAAN; Ile35/Leu39 mutant 800-Cap peptide) [compound 6]”, in the data set on S. aureus [1], the “inhibitory activity” value was “no activity”.
As to “800: short peptide derived from the primary sequence of the tetraspanin CD9 large extracellular domain (EC2); previously published (EPQRETLKAIHYALN; 800 peptide sequence) [compound 800]”, in the data set with S. aureus [3], the “functional activity, time and dose dependence” value is “functionally active in a time and dose-dependent manner”; the “reduction of adherence of Staphylococcus aureus binding to human keratinocyte cells” value is “can reduce the adherence”. For the same molecule, the “activity against S. aureus adhesion to a wound model of human skin” value with S. aureus SH1000 [4] (previously published (Ventress et al., 2016)) is given as “active”. In addition, the “bacterial burden in a 3D model of human skin” value in the data set with S. aureus SH1000 [4] (reference [7]) was “effective in lowering bacterial burden”.
For “SEQ ID NO: 17: shorter form of peptide 800-Cap (DEPQRETL; first short form of 800-Cap)”, in the data set on S. aureus [1], the “inhibitory activity” value is recorded as “little or no inhibitory activity”.
On to `CC[C@H](C)[C@H](NC(=O)[C@H](C)NC(=O)[C@H](CCCCN)NC(=O)[C@H](CC(C)C)NC(=O)[C@]1(C)CCCC=CCCC[C@](C)(NC(=O)[C@H](CCC(=O)O)NC(=O)[C@@H](N)CC(=O)O)C(=O)N[C@@H](CCC(N)=O)C(=O)N[C@@H](CCCNC(=N)N)C(=O)N[C@@H](CCC(=O)O)C(=O)N1)C(=O)N[C@@H](Cc1c[nH]cn1)C(=O)N[C@@H](Cc1ccc(O)cc1)C(=O)N[C@@H](C)C(=O)N[C@@H](CC(C)C)C(=O)N[C@@H](CC(N)=O)C(=O)O` [800i] (H-DE[S5]QRE[S5]LKAIHYALN-OH; staple 3-7; N-terminus and C-terminus assumed), for which the “resistance of peptide activity to P. aeruginosa PA01 culture” value with P. aeruginosa PA01 is recorded as “resistant”.
In the case of “peptide 7: synthetic peptide with helix-preserving Ala residues replacing Pro27/Thr31 (DEAQREALKAIHYALN; Pro27/Thr31 mutant 800-Cap peptide)”, the “inhibitory activity” value with S. aureus [1] was “retained full activity”.
On to `CC[C@H](C)[C@@H]1NC(=O)[C@@](C)(NC(=O)[C@H](CCCCN)NC(=O)[C@H](CC(C)C)NC(=O)[C@@H](NC(=O)[C@H](CCC(=O)O)NC(=O)[C@H](CCCNC(=N)N)NC(=O)[C@H](CCC(N)=O)NC(=O)[C@@H]2CCCN2C(=O)[C@H](CCC(=O)O)NC(=O)[C@@H](N)CC(=O)O)[C@@H](C)O)CCCC=CCCC[C@@](C)(C(=O)N[C@@H](CC(C)C)C(=O)N[C@@H](CC(N)=O)C(=O)O)NC(=O)[C@H](Cc2ccc(O)cc2)NC(=O)[C@H](Cc2c[nH]cn2)NC1=O` [800ii] (H-DEPQRETLK[S5]IHY[S5]LN-OH; staple 10-14; N-terminus and C-terminus assumed), for which, in the data set with P. aeruginosa PA01, the “resistance of peptide activity to P. aeruginosa PA01 culture” value is given as “resistant”. The remaining at 18 h, 100 µg/ml worked out at 50% in data set [5] and 20% in [6]. For the same molecule, the “digestion by trypsin after 1 hour” value with trypsin was “not digested at all”. Further, the “digestion by chymotrypsin after 1 hour” value in the data set on chymotrypsin is given as “not digested at all”.
“1: synthetic peptide with helix-preserving Ala residues replacing Glu26/Arg29 (DAPQAETLKAIHYALN; Glu26/Arg29 mutant 800-Cap peptide) [compound 1]”: the “inhibitory activity” value in the data set with S. aureus [1] was “no activity”.
Take “mouse equivalent of 800-CAP: the mouse equivalent of 800-CAP; probably SEQ ID NO: 6 (DEPQRETLKAIHMALD; listed as Mus musculus)”: in the data set with S. aureus SH1000 [7], the “bacterial load in skin after 5 days” value is recorded as “significantly reduced”.

The values above are taken from patent US20240092863A1, “ANTIMICROBIAL TARGET” (priority 2020, published 2024).
